# From patent US11007169B2, “Cis-gnetin H and trans-gnetin H as therapeutic agents” (MIDDLE TENNESSEE STATE UNIVERSITY, priority 2014, dated 2021)
# Key:
# [1] = tested on: U2OS cells (human osteosarcoma); assay: Inhibition of cell proliferation, AlamarBlue fluorescent assay, U2OS; type: cell-based; details: 48 hours, cancer cell line
# Experimental: (§1) The cancer cell lines used in this study included human lung carcinoma (A549), human breast carcinoma (BT20 and MCF-7) and human osteosarcoma (U2OS), with the normal cell lines human peripheral lung epithelial cells (HPL1A) and human mammary epithelial cells (HMEC) serving as controls. A549, BT20, MCF-7, U2OS and HMEC cells were purchased from American Type Culture Collection (ATCC, USA), and HPL1A cells were obtained from Nagoya University, Japan. A549 and BT20 were grown in RPMI-1640 (Sigma), MCF-7 was grown in Dulbecco's Modified Eagle Medium (DMEM) (Sigma) supplemented with 0.01 mg/ml human recombinant insulin (Sigma), U2OS and HMEC were grown in McCoy's 5A (ATCC), and HPL1A was grown in DMEM/F-12K (Sigma). The mediums were supplemented with 10% Fetal Bovine Serum (FBS) (Gibco), 1% penicillin and streptomycin and incubated in a humidified atmosphere with 5% CO2 at 37° C.
# The proliferation inhibition potential of cis- and trans-gnetin H was determined by a fluorescence dye staining method. Cells were seeded in a 96-well tissue culture-treated plate (BD Falcon) at a density of 4000 cells/well, and treated with cis- or trans-gnetin H for 48 hours. AlamarBlue dye (Invitrogen) was used to assess the viability of cells according to the manufacturer's instructions; the fluorescent intensity was read on a SpectraMax M2e microplate reader (Molecular Devices Inc.). […]
# [2] = tested on: caspase 3/7 in A549 cells; assay: Caspase 3/7 activation assay (Caspase-Glo 3/7); type: cell-based, human; details: 100 μM
# Experimental: Caspase 3/7 activity was analyzed using an in-situ luminescent marker. A549 and BT20 cells were seeded in a white 96-well plate (Greiner) at a density of 8000 cells/well, and treated with 100 μM cis- or trans-gnetin H for 24 hours. Caspase activity was then determined using the Caspase-Glo 3/7 Assay (Promega) according to the manufacturer's instructions. The luminescence of each sample was measured using a SpectraMax M2e Microplate Reader (Molecular Devices Inc.).
# [3] = tested on: mitochondrial cytochrome c in BT20 cells; assay: Analysis of cytochrome c by flow cytometry, BT20; type: cell-based, human; details: 100 μM, 24 hours
# Experimental: A549 and BT20 cells were seeded in a 96-well plate (BD Falcon) at a density of 8000 cells/well and treated with 100 μM of cis- or trans-gnetin H for 24 hours. The expression of cytochrome c was evaluated using the FlowCellect Cytochrome c Kit (Millipore) according to the manufacturer's instructions. Cells were stained with either Anti-IgG1-FITC Isotype control or Anti-Cytochrome c-FITC, and data was acquired and analyzed using the Guava Flow Cytometer (Millipore).
# [4] = tested on: IL-1β in LPS-stimulated THP-1 cells; assay: Cytokine response by ELISA, IL-1β; type: cell-based, human; details: cis 12.5-50 μM, trans 8-30 μM, 20 ng/ml LPS, p<0.05
# Experimental: (§2) THP-1 cells were maintained in RPMI 1640 medium supplemented with 10% complement-inactivated FBS and 1% penicillin/streptomycin (complete culture medium) at 37° C. with 5% CO2 supplemented. Cell concentrations were adjusted to desired concentrations for each experiment by centrifugation at 500×g for 5 min and resuspended in complete culture medium with 100 nM of PMA. Cell concentration was adjusted to 5×10^5 cells/ml for all assays and 2.5×10^5 cells/ml were used for NF-κB nuclear translocation assay. Cells were seeded onto 96-, 24-, or 12-well plates and incubated for 48 to 72 h to allow for differentiation. Cells were washed with serum-free RPMI 1640 medium before each experiment to remove the undifferentiated cells.
# Differentiated THP-1 cells were pretreated with various concentrations of cis-gnetin H, trans-gnetin H, or 1 μM of dexamethasone for 1 h and stimulated with 20 ng/ml of LPS for 4 h. Dexamethasone is a synthetic glucocorticoid that suppresses cytokine response and was used as a positive control (Abraham et al., 2006, J. Exp. Med., 203:1883-9; Steer et al., J. Biol. Chem., 2000, 275(24):18432-40). Supernatants were collected for human cytokine ELISAs and the manufacturer's protocol was followed to assess the cytokine response. Cells remaining after the supernatant collection were tested for relative viability by Alamar Blue cytotoxicity assay as described earlier.
# [5] = tested on: phosphorylated IKK α/β (Ser176/180) in LPS-stimulated THP-1 cells; assay: Western blot, IKK β phosphorylation; type: cell-based, human
# Experimental: as §2
# Differentiated THP-1 cells were pretreated with various concentrations of cis-gnetin H, trans-gnetin H, or 10 μM of Bay 11-7082 for 1 h and stimulated with 1 μg/ml of LPS for 15 min. Cells were lysed with radio-immunoprecipitation assay (RIPA; 1% Triton X-100, 0.5% Sodium deoxycholate, 0.1% sodium dodecyl sulfate, 150 mM sodium chloride, and 50 mM Tris-chloride) lysis buffer that contained protease and phosphatase inhibitor cocktail. Cell lysates were then tested for protein concentration using a BCA protein assay, and diluted with RIPA lysis buffer to normalize protein concentration in all samples. […]
# [6] = tested on: HPL1A cells (human peripheral lung epithelial cells); assay: Inhibition of cell proliferation, AlamarBlue fluorescent assay, HPL1A normal control; type: cell-based; details: for inhibitory effects on normal HPL1A cells: 10 uM, up to 48 hours; for IC50: Homo sapiens, HPL1A, 48 hours, AlamarBlue, normal cell line
# Experimental: as §1
# The proliferation inhibition potential of cis- and trans-gnetin H was determined by a fluorescence dye staining method. Cells were seeded in a 96-well tissue culture-treated plate (BD Falcon) at a density of 4000 cells/well, and treated with cis- or trans-gnetin H for 48 hours. AlamarBlue dye (Invitrogen) was used to assess the viability of cells according to the manufacturer's instructions; the fluorescent intensity was read on a SpectraMax M2e microplate reader (Molecular Devices Inc.).
# For the determination of IC50 values, cells were treated with a serial dilution (320 μM, 100 μM, 32 μM, 10 μM, 3.2 μM, and 0.32 μM) of cis- or trans-gnetin H for 48 hours. Cell viability was determined with AlamarBlue dye (Invitrogen) and the IC50 values were calculated using non-linear regression analysis.
# BT20 cells = assay: Apoptosis assay by flow cytometry, BT20; type: cell-based, human; details: 100 μM, 24 hours
# Experimental: A549 and BT20 cells were seeded in a 96-well plate (BD Falcon) at a density of 8000 cells/well, and treated with cis- or trans-gnetin H for 24 hours. Apoptosis was assessed using Annexin V/7-AAD double staining as described (Bai et al., Cancer Sci. 2010; 101(2):488-493). Cells were analyzed on a Guava Flow Cytometer (Millipore) using InCyte software and the data was exported to FlowJo software for image display.
IC50 [1],Compound,activities of caspase 3/7 compared with untreated A549 cells [2],cytochrome c release in BT20 [3],inhibition of IL-1β [4],IKK β phosphorylation [5],inhibitory effects on normal HPL1A cells [6],IC50 [6],apoptosis induction in BT20 (BT20 cells)
9.32 µM,Oc1ccc(/C=C\c2c3c(cc4c2[C@H](c2cc(O)cc(O)c2)[C@@H](c2ccc(O)cc2)O4)O[C@H](c2ccc(O)cc2)[C@H]3c2cc(O)cc(O)c2)cc1 [cis-gnetin H],3.65 fold,release of mitochondrial cytochrome c,significant inhibition,significantly inhibited,no such obvious inhibitory effects,91 µM,induce apoptosis
3.1 µM,Oc1ccc(/C=C/c2c3c(cc4c2[C@H](c2cc(O)cc(O)c2)[C@@H](c2ccc(O)cc2)O4)O[C@H](c2ccc(O)cc2)[C@H]3c2cc(O)cc(O)c2)cc1 [trans-gnetin H],2.7 fold,release of mitochondrial cytochrome c,significant inhibition,significantly inhibited,no such obvious inhibitory effects,72 µM,induce apoptosis
